Data on five molecules can be found in patent US8466113B2, “4-isopropylphenyl glucitol compounds as SGLT1 inhibitors” (Taisho Pharmaceutical Co., Ltd., priority 2009, dated 2013).

For experiment [1], the target named is T1, human SGLT2 protein modified to have LeuGluSerArgGlyProVal added to the carboxy-terminal final residue (Homo sapiens, UniProt P31639).
T1 construct: expressed in transfected cells; host or cells: CHO-K1
T1 sequence (P31639 with tags, fused parts or gaps): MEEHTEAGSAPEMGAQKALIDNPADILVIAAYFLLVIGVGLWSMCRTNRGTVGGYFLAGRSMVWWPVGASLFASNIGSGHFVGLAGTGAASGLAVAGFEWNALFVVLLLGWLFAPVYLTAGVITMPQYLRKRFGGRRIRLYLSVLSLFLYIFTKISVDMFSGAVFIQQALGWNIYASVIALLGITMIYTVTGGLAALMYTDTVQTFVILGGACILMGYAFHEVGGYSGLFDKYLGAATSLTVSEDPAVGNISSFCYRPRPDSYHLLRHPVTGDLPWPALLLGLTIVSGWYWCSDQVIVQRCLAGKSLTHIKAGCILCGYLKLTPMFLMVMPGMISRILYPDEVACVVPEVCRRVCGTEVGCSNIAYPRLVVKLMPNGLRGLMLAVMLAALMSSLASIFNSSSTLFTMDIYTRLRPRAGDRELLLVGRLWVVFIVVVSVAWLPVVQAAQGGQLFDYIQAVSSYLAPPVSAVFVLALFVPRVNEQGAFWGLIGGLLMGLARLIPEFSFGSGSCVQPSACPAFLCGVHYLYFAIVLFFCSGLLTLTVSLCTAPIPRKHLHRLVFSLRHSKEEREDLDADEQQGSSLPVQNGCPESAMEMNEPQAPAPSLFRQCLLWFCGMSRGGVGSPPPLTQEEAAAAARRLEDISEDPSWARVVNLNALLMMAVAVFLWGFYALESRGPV
Kind of experiment: Inhibition test for sodium-dependent sugar uptake in CHO-K1 cells stably expressing human SGLT2, Method A. Type of experiment: cell-based. Conditions: uptake 37° C., 60 minutes, read-out: IC50 for hSGLT2 Method A. The protocol:
(2) Creation of CHO-K1 Cells Stably Expressing Human SGLT2
Method A (described in WO2007/136116): A plasmid vector expressing human SGLT2 protein modified to have LeuGluSerArgGlyProVal added to the carboxy-terminal final residue was transfected into CHO-K1 cells using lipofectamine 2000 (Invitrogen). The cells were cultured in the presence of 500 μg/mL hygromycin B to select resistant strains, followed by screening in the system shown below using sugar uptake capacity as an indicator to obtain SGLT2-expressing cells.
(3) Inhibition Test for Sodium-Dependent Sugar Uptake in Stably Expressing Cells
The stably expressing cells prepared above were used in the following test.
Pretreatment buffer (140 mM choline chloride, 2 mM KCl, 1 mM CaCl2, 1 mM MgCl2, 10 mM HEPES/5 mM Tris, pH 7.4) was added in a volume of 200 μL to the cells stably expressing SGLT1 or 2 mL for Method A and 200 μL for Method B to the cells stably expressing SGLT2, followed by incubation for 20 minutes. The pretreatment buffer was removed and replaced by uptake buffer containing a test compound (1 mM methyl α-D-glucopyranoside (containing [^14C]methyl α-D-glucopyranoside), 140 mM NaCl, 2 mM KCl, 1 mM CaCl2, 1 mM MgCl2, 10 mM HEPES/5 mM Tris, pH 7.4) in a volume of 75 μL for SGLT1 and SGLT2 in Method B or 200 μL for SGLT2 in Method A. Uptake reaction was performed at 37° C. for 30 minutes (SGLT1) or 60 minutes (SGLT2). After the reaction, the cells were washed twice with washing buffer (10 mM methyl α-D-glucopyranoside, 140 mM choline chloride, 2 mM KCl, 1 mM CaCl2, 1 mM MgCl2, 10 mM HEPES/5 mM Tris, pH 7.4) in a volume of 200 μL for SGLT1 and SGLT2 in Method B or 2 mL for SGLT2 in Method A, and then dissolved in a 0.25 M NaOH solution (75 μL for SGLT1 and SGLT2 in Method B or 400 μL for SGLT2 in Method A). A liquid scintillator (Perkin Elmer) was added and mixed well with each sample, followed by measurement of radioactivity using a β-ray analyzer. For the control group, uptake buffer containing no test compound was prepared. Moreover, another uptake buffer containing choline chloride instead of NaCl was also prepared for basal uptake.
For determination of IC50 values, test compounds prepared at 6 appropriate concentrations were used and their concentrations required for 50% inhibition of the amount of sugar uptake (IC50 values) were calculated relative to the amount of sugar uptake in the control group (100%).

In experiment [2] the test system is streptozotocin (STZ)-induced diabetic rats. The experiment is described as follows: Oral glucose tolerance test (OGTT) in streptozotocin-induced diabetic model rats. Conditions: oral 1 mg/kg, glucose 2 g/kg, versus vehicle control. The experiment is classed as in vivo, rat. How it is done:
(1) Preparation of Diabetic Model Rats
SD/IGS rats at 7 weeks of age (male, Charles River Laboratories Japan Inc.) were fasted for about 16 hours and then injected with 50 mg/kg streptozotocin (STZ) via the tail vein under ether anesthesia to prepare diabetic model rats. Similarly, another group of SD/IGS rats at 7 weeks of age was injected with 1.25 mmol/L citric acid in physiological saline (1 mL/kg) via the tail vein under ether anesthesia to prepare normal control rats. At one week after injection of STZ or 1.25 mmol/L citric acid in physiological saline, the rats were provided for an oral glucose tolerance test.
(2) Oral Glucose Tolerance Test (OGTT)
After the diabetic model rats were fasted for about 16 hours, drug groups were each orally administered with a drug (1 mg/kg) dissolved in a 0.5% aqueous carboxymethylcellulose sodium (CMC) solution, while the control group was orally administered with a 0.5% aqueous CMC solution alone. The drugs used were compounds 10, 11 and 33 disclosed in WO07/136116, as well as compounds 1-2, 5-2, 6-2, 13-2 and 15-2 according to the present invention. Immediately after drug administration, a glucose solution (2 g/kg) was orally administered and blood was collected at 6 points in total: before drug administration (0 hour) and 0.25, 0.5, 1, 1.5 and 2 hours after oral administration.
Blood was collected from the tail vein of each rat without anesthesia using a heparin-coated blood collection tube, and centrifuged to separate plasma. Plasma glucose concentrations were quantified by measurement with a Glucose CII-Test Wako (Wako Pure Chemical Industries, Ltd., Japan). To determine the intensity of hypoglycemic effect, the blood glucose level before drug administration was subtracted from each blood glucose level measured until one hour after oral administration in each drug group, and the resulting values were analyzed by the trapezoidal method to calculate an increment in the area under the curve for glucose (ΔAUC), which was expressed as a decrease relative to ΔAUC of the control group.

As to `COc1cc(C(C)C)c(Cc2ccc(/C=C/C(C)(C)C(=O)NC(C)(C)C(=O)NCCN(C)C)cc2)cc1[C@@H]1O[C@H](CO)[C@@H](O)[C@H](O)[C@H]1O` [Example 15-2], in experiment [1], the IC50 is 1280 nM. The “STZ rats OGTT % inhibition ΔAUC0-1 h (mg/dl) @1 mg/kg/po” value (from here on “STZ rats OGTT % inhibition ΔAUC0-1 h”) in experiment [2] turned out to be 62%.

In the case of `Cc1cc(/C=C/C(C)(C)C(=O)NC(C)(C)C(=O)N2CCC(N(C)C)CC2)ccc1Cc1cc([C@@H]2O[C@H](CO)[C@@H](O)[C@H](O)[C@H]2O)c(O)cc1C(C)C` [Example 5-2], the IC50 in experiment [1] worked out at 802 nM. In addition, the “STZ rats OGTT % inhibition ΔAUC0-1 h” value in experiment [2] was 66%.

In the case of `COc1cc(C(C)C)c(Cc2ccc(/C=C/C(C)(C)C(=O)NC(C)(C)C(=O)NCC(C)(C)N)cc2C)cc1[C@@H]1O[C@H](CO)[C@@H](O)[C@H](O)[C@H]1O` [Example 13-2], the IC50 in experiment [1] amounted to 14800 nM. Moreover, the “STZ rats OGTT % inhibition ΔAUC0-1 h” value in experiment [2] amounted to 54%.

For `Cc1cc(/C=C/C(C)(C)C(=O)NC(C)(C)C(=O)NCC(C)(C)N)ccc1Cc1cc([C@@H]2O[C@H](CO)[C@@H](O)[C@H](O)[C@H]2O)c(O)cc1C(C)C` [Example 6-2], in experiment [1], the IC50 was found to be 3110 nM. Moreover, in experiment [2], the “STZ rats OGTT % inhibition ΔAUC0-1 h” value is 64%.

`Cc1cc(/C=C/C(C)(C)C(=O)NC(C)(C)C(=O)NCCN(C)C)ccc1Cc1cc([C@@H]2O[C@H](CO)[C@@H](O)[C@H](O)[C@H]2O)c(O)cc1C(C)C` [Example 1-2]: in experiment [1], the IC50 came out at 2690 nM. Also, the “STZ rats OGTT % inhibition ΔAUC0-1 h” value in experiment [2] was determined as 74%.
